We go through 14 compounds from patent US7998965B2, “Glutamate aggrecanase inhibitors” (Wyeth LLC, priority 2005, dated 2011).

The structures appear in SMILES notation. Bounds are passed on as bounds.

The IC50 is the concentration needed to halve the response being measured. Usually Ki stands for a dissociation constant, usually derived from enzyme kinetics or from competition with a known ligand.

The target of experiment [1] is T1, purified recombinant human Aggrecanase-1 (rAgg1) (Homo sapiens, UniProt O75173).
T1 sequence (O75173 213-837): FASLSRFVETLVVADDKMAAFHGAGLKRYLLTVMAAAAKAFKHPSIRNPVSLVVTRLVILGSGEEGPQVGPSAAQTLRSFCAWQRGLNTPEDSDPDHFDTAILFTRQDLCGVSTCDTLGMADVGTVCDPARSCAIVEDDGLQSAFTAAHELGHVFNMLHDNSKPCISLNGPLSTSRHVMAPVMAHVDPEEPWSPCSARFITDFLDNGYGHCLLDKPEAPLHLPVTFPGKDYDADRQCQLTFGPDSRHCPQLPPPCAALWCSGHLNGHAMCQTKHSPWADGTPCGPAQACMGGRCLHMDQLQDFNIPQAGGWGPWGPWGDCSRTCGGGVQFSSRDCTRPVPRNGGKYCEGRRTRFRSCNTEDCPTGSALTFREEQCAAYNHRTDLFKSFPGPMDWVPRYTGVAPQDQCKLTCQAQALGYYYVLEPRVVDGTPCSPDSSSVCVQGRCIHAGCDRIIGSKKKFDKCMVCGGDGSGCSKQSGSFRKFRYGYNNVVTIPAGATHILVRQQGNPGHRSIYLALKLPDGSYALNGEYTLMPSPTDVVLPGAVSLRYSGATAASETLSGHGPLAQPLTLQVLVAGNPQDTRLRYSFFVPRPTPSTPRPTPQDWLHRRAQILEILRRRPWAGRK
Kind of experiment: In vitro fluorescence screen for Aggrecanase-1 inhibitors. The experiment is classed as biochemical. The conditions noted are these: Table 3; for IC50: read-out: Agg1 IC50; for Ki: read-out: Ki Agg1.

Experiment [2] deals with T2, purified recombinant human Aggrecanase-2 (Ag2t-Phe628-Strep) (Homo sapiens, UniProt Q9UNA0).
T2 construct: the form used is denoted as Ag2t-Phe628-Strep (MW=41,737)
T2 sequence (Q9UNA0 262-628): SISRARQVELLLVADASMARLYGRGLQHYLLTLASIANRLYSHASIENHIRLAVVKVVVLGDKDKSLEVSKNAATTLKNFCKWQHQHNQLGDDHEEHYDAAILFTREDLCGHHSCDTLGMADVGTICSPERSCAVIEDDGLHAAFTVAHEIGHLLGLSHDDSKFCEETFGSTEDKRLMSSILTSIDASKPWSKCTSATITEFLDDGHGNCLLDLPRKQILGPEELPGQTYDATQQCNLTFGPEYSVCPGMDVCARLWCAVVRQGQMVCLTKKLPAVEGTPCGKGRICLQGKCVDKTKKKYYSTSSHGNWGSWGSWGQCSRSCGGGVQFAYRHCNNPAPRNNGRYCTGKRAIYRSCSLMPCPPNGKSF
Kind of experiment: In vitro fluorescence screen for Aggrecanase-2 inhibitors. The experiment is classed as biochemical. The conditions noted are these: Table 3; for IC50: read-out: Agg 2 IC50; for Ki: read-out: Ki Agg2.

Experiment [3] deals with MMP-8 (Homo sapiens, UniProt P22894). Kind of experiment: MMP-8 of Table 3. The experiment is classed as biochemical. The note with it: unit inferred.
Experiment [4] deals with MMP-12 (Homo sapiens, UniProt P39900). The experiment is described as follows: MMP-12 of Table 3. The experiment is classed as biochemical. The note with it: unit inferred.
Experiment [5] has as its target T3, recombinant human MMP-2 (Homo sapiens, UniProt P08253).
T3 sequence (P08253 110-660): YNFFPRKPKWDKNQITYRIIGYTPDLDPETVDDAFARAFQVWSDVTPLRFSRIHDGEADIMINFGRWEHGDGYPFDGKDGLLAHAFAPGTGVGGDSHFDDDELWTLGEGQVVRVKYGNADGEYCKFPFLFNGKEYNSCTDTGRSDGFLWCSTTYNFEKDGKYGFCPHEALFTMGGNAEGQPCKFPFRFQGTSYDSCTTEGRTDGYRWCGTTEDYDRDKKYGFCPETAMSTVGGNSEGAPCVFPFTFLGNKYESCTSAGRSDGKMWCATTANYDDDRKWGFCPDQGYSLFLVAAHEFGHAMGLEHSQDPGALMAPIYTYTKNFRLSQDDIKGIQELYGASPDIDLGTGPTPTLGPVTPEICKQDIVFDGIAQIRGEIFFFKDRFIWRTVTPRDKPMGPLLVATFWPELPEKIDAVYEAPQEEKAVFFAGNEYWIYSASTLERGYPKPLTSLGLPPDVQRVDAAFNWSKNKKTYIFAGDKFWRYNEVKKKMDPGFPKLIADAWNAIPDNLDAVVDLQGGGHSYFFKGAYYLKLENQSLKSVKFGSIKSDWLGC
The experiment is described as follows: In vitro fluorescence assay of MMP-2 activity.

Sequence of MMP-12 (P39900 106-470): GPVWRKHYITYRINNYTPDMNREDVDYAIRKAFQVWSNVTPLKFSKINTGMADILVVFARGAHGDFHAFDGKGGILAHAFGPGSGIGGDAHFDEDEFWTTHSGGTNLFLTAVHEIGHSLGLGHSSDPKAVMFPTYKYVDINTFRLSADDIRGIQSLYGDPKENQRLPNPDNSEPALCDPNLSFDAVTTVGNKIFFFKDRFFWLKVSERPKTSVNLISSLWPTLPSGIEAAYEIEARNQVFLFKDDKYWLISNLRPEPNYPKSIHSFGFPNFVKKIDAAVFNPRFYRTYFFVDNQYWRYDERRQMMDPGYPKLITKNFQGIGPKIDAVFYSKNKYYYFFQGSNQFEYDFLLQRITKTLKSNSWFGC
Sequence of MMP-8 (P22894 101-467, species assumed): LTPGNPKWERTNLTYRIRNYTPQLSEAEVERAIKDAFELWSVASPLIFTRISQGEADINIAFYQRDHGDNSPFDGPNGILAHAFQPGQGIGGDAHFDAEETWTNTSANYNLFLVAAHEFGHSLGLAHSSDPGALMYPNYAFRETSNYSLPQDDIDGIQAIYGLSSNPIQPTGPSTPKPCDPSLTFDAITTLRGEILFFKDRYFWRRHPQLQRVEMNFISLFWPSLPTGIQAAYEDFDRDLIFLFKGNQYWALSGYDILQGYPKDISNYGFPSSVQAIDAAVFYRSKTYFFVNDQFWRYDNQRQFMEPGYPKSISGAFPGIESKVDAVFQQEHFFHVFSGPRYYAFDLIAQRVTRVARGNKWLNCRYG

In the case of `CC(C)(Cc1ccccc1)NC(=O)[C@H](CCC(=O)O)NC(=O)c1ccc(-c2ccc(Br)s2)cc1` [Example 8OOOOOOOOO, N^2-[4-(5-bromo-2-thienyl)benzoyl]-N-(1,1-dimethyl-2-phenylethyl)-L-α-glutamine], the concentration for half-maximal inhibition (IC50) in experiment [1] was under 0.03 µM; in experiment [2], about 0.03 µM; in experiment [3] it was 0.349 µM; in experiment [4], 0.372 µM; in experiment [5] it was 0.718 µM. Further, the inhibition constant (Ki) amounted to 0.0027 µM in experiment [1] and 0.066 µM in experiment [2].
As to `CC(C)(Cc1ccc(F)cc1)NC(=O)[C@H](CCC(=O)O)NC(=O)c1ccc(-c2ccsc2)cc1` [Example 8UUUUUUU, N-[2-(4-fluorophenyl)-1,1-dimethylethyl]-N^2-[4-(3-thienyl)benzoyl]-L-α-glutamine], the concentration for half-maximal inhibition (IC50) is under 0.03 µM in experiment [1]; 0.06 µM in experiment [2]; 2.03 µM in experiment [3]; 0.41 µM in experiment [4]; 5.18 µM in experiment [5]. Further, the Ki in experiment [1] is under 0.003 µM; in experiment [2], 0.06 µM.
Regarding `Cc1ccc(-c2ccc(C(=O)N[C@@H](CCC(=O)O)C(=O)NC(C)(C)Cc3ccc(F)cc3)cc2)s1` [Example 8VVVVVVV, N-[2-(4-fluorophenyl)-1,1-dimethylethyl]-N^2-[4-(5-methyl-2-thienyl)benzoyl]-L-α-glutamine], the IC50 in experiment [1] is under 0.03 µM; in experiment [3] it was 0.41 µM; in experiment [4] it was 0.77 µM; in experiment [5] it was 0.57 µM. Besides, the inhibition constant (Ki) is 0.007 µM in experiment [1] and 0.305 µM in experiment [2]. Besides, the inhibition at 0.14 µM in experiment [2] (at 140 (nM), read-out: Agg 2 % at concentration) turned out to be 51%.
Turning to `CC(C)(Cc1ccc(F)cc1)NC(=O)[C@H](CCC(=O)O)NC(=O)c1ccc(-c2ccc(Br)s2)cc1` [Example 8WWWWWW, N^2-[4-(5-bromo-2-thienyl)benzoyl]-N-[2-(4-fluorophenyl)-1,1-dimethylethyl]-L-α-glutamine], the IC50 was under 0.003 µM in experiment [1]; 0.05 µM in experiment [2]; 1 µM in experiment [3]; 5.8 µM in experiment [4]; 2.6 µM in experiment [5]. Also, the Ki in experiment [1] amounted to 0.0071 µM; in experiment [2], 0.072 µM.
Regarding `CC(C)(Cc1ccc(Cl)s1)NC(=O)[C@H](CCC(=O)O)NC(=O)c1ccc(-c2cccc(F)c2)cc1` [Example 8XXXXXX, N-[2-(5-chloro-2-thienyl)-1,1-dimethylethyl]-N^2-[(3′-fluorobiphenyl-4-yl)carbonyl]-L-α-glutamine], the IC50 in experiment [1] is under 0.03 µM; in experiment [2] it was 0.02 µM; in experiment [3], 4.1 µM; in experiment [4], 1.6 µM; in experiment [5], 7.5 µM. The inhibition constant (Ki) was under 0.003 µM in experiment [1] and 0.06 µM in experiment [2].
`CC(C)(Cc1ccc(Cl)cc1)NC(=O)[C@H](CCC(=O)O)NC(=O)c1ccc(-c2ccc(Cl)cc2)cc1` [Example 8XXXXXXXXX, N^2-[(4′-chlorobiphenyl-4-yl)carbonyl]-N-[2-(4-chlorophenyl)-1,1-dimethylethyl]-L-α-glutamine]: the IC50 in experiment [1] was under 0.03 µM; in experiment [2], 0.025 µM; in experiment [3], 1.79 µM; in experiment [4], 0.597 µM; in experiment [5], 2.61 µM. In addition, the inhibitory constant (Ki) in experiment [1] was determined as 0.0182 µM; in experiment [2], 0.0716 µM.
On to `CC(C)(Cc1ccc(F)cc1)NC(=O)[C@H](CCC(=O)O)NC(=O)c1ccc(-c2ccc(F)c(F)c2)cc1` [Example 8YYYYYY, N^2-[(3′,4′-difluorobiphenyl-4-yl)carbonyl]-N-[2-(4-fluorophenyl)-1,1-dimethylethyl]-L-α-glutamine], for which the concentration for half-maximal inhibition (IC50) in experiment [1] was under 0.03 µM; in experiment [2], 0.03 µM; in experiment [3], 0.737 µM; in experiment [4], 0.365 µM; in experiment [5], 4.7 µM. The inhibition constant Ki in experiment [1] turned out to be 0.0135 µM; in experiment [2], 0.16 µM.
As for `CC(C)(Cc1ccc(F)cc1)NC(=O)[C@H](CCC(=O)O)NC(=O)c1ccc(-c2ccc(F)cc2)s1` [Example 8ZZZZZZZZZ, N-[2-(4-fluorophenyl)-1,1-dimethylethyl]-N^2-{[5-(4-fluorophenyl)-2-thienyl]carbonyl}-L-α-glutamine], the concentration for half-maximal inhibition (IC50) in experiment [1] was under 0.03 µM; in experiment [2], 0.03 to 0.09 µM; in experiment [3], 2.44 µM; in experiment [4], 2.86 µM; in experiment [5], 8.28 µM. Moreover, the Ki worked out at 0.0047 µM in experiment [1] and 0.123 µM in experiment [2].
In the case of `CC(C)(Cc1ccccc1)NC(=O)[C@H](CCC(=O)O)NC(=O)c1ccc(-c2cccc(F)c2)cc1` [N-(1,1-dimethyl-2-phenylethyl)-N^2-[(3′-fluorobiphenyl-4-yl)carbonyl]-L-α-glutamine], the half-maximal inhibitory concentration (IC50) is under 0.03 µM in experiment [1]; 0.08 µM in experiment [2]; 2.5 µM in experiment [3]; 1.07 µM in experiment [4]; 6.4 µM in experiment [5]. Besides, the results for the inhibition constant Ki in experiment [1] and in experiment [2] were 0.0232 µM and 0.18 µM, respectively.
For the compound `CC(C)(Cc1ccccc1)NC(=O)[C@H](CCC(=O)O)NC(=O)c1ccc(-c2ccc(F)cc2)cc1` [N-(1,1-dimethyl-2-phenylethyl)-N^2-[(4′-fluorobiphenyl-4-yl)carbonyl]-L-α-glutamine], the IC50 in experiment [1] is under 0.03 µM; in experiment [2], 0.09 µM; in experiment [3], 0.763 µM; in experiment [4] it was 0.628 µM; in experiment [5] it was 4 µM. Moreover, the Ki in experiment [1] is 0.0272 µM; in experiment [2], 0.218 µM.
Regarding `CC(C)(Cc1ccccc1)NC(=O)[C@H](CCC(=O)O)NC(=O)c1ccc(-c2ccc(F)cc2)s1` [N-(1,1-dimethyl-2-phenylethyl)-N^2-{[5-(4-fluorophenyl)-2-thienyl]carbonyl}-L-α-glutamine], the IC50 is under 0.03 µM in experiment [1]; 0.03 to 0.3 µM in experiment [2]; 2.55 µM in experiment [3]; 2.89 µM in experiment [4]; 7.24 µM in experiment [5]. In addition, the Ki turned out to be 0.0115 µM in experiment [1] and 0.126 µM in experiment [2].
Turning to `CC(C)(Cc1ccc(Cl)cc1)NC(=O)[C@H](CCC(=O)O)NC(=O)c1ccc(-c2cccc(Cl)c2)cc1` [N^2-[(3′-chlorobiphenyl-4-yl)carbonyl]-N-[2-(4-chlorophenyl)-1,1-dimethylethyl]-L-α-glutamine], the IC50 in experiment [1] is under 0.03 µM; in experiment [2] it was 0.25 µM; in experiment [3], 13.2 µM; in experiment [4], 3.71 µM; in experiment [5] it was 25.5 µM. Further, the Ki in experiment [1] is 0.0396 µM; in experiment [2], 0.349 µM.
For `CC(C)(Cc1ccccc1)NC(=O)[C@H](CCC(=O)O)NC(=O)c1ccc(-c2ccc(Cl)cc2)s1` [N^2-{[5-(4-chlorophenyl)-2-thienyl]carbonyl}-N-(1,1-dimethyl-2-phenylethyl)-L-α-glutamine], the IC50 in experiment [1] was under 0.03 µM; in experiment [2] it was 0.1 to 0.3 µM; in experiment [3] it was 2.23 µM; in experiment [4] it was 2.24 µM; in experiment [5], 6.97 µM. Besides, the figures for the inhibition constant Ki in experiment [1] and in experiment [2] were 0.0289 µM and 0.204 µM, respectively.
Consider `CC(C)(Cc1ccc(F)cc1)NC(=O)[C@H](CCC(=O)O)NC(=O)c1ccc(-c2ccc(Cl)cc2)s1` [N^2-{[5-(4-chlorophenyl)-2-thienyl]carbonyl}-N-[2-(4-fluorophenyl)-1,1-dimethylethyl]-L-α-glutamine], for which the IC50 in experiment [1] was under 0.03 µM; in experiment [2], over 0.1 µM; in experiment [3], 3.4 µM; in experiment [4], over 10 µM; in experiment [5] it was 8 µM. Also, the figures for the inhibition constant Ki in experiment [1] and in experiment [2] were 0.0117 µM and 0.405 µM, respectively.
